{"source": "patent US6673749B1", "about": "“Use of phyllocladane diterpenoids for plant growth promotion and alleviation of growth retardant allelochemicals, and method therefor” (Council of Scientific and Industrial Research, priority 2002, dated 2004)", "format_in_all_cases": "in vivo", "key": {"[1]": {"test_system": "Trigonella foenum-graecum", "test": "Seed germination and seedling shoot/root growth test in petridishes", "settings": "for Percent (%) germination of seeds in relation to control on 9th day after sowing / Percent (%) root growth of seedlings in relation to control on 9th day after sowing / Percent (%) shoot growth of seedlings in relation to control on 9th day after sowing: Trigonella foenum graecum, control = 100%", "procedure": "(§1) As noted above the activity of phyllocladane diterpenoids used in the practice of this invention was observed when these compounds were tested for their effects on seed germination, root and shoot growth of certain plant species and their antagonistic effect on plant growth retardants by the method described by Bagchi G. D. et al Phytochemistry, 45(6)1131-1133, 1997.\n(§2) Plant growth promoting activity of calliterpenone, calliterpenone monoacetate, and calliterpenone di-acetate was examined at 0.1, 0.01 and 0.001 μM concentrations. The tests were conducted against seeds of two monocotyledonous (Hordeum vulgare and Triticum aestivum) and two dicotyledonous plants (Vigna radiata and Trigonella foenum-graecum). Control seeds were germinated in distilled water and all the observations were compared with […]. The root and shoot growth of all the plant species were affected by the phyllocladane diterpenoids, although the extent of effect varied considerably in the plant species with the chemicals and their concentrations. […] Details of the procedure adopted and results obtained are discussed in the various examples.\n(§3) 100 ml stalk solutions of 0.1 μM concentration were prepared by dissolving required amounts of various test compounds (depending upon their molecular weights) in minimum amount of ethanol or acetone and adding distilled water. From this stalk solution, 0.01 μM and 0.001 μM concentrations were prepared. Calliterpenone and calliterpenone di acetate was dissolved in 2.0 ml absolute ethanol (Merc), while; calliterpenone monoacetate, isopropylideno calliterpenone and trihydroxy calliterpenone were dissolved in 2.0 ml spectral grade acetone (Ranbaxy). The respective control test solutions of distilled water of each concentration also contained equal amount of absolute ethanol or acetone. For an assay, 10 seeds were placed on Whatman filter paper (moistened with 5.0 ml of test solution in a 9.0 cm diameter petridish (in triplicate). The pteridishes were incubated for 9 days in a germinator, maintained at 25.0±1.0° C. with 90% humidity and 4 hr light/day. At the end of incubation, observations were recorded on the seedlings in terms of germination, shoot and root growth. The data on the length of shoot and root of seedlings and number of seeds germinated in different concentrations of compounds were compared with the control, which was taken as 100%. The data thus obtained were presented in Table-1.\n(§4) Root growth of seedlings was measured in the similar way as shoot growth from the experiment as described in Example 1.\n(§5) Effect of test compounds on germination was observed from the same experiment as described in Example 1."}, "Vigna radiata": {"test_system": "Vigna radiata", "test": "Seed germination and seedling shoot/root growth test in petridishes", "settings": "Vigna radiata, control = 100%", "procedure": "as §1, §2, §3, §4, §5"}, "Triticum aestivum": {"test_system": "Triticum aestivum", "test": "Seed germination and seedling shoot/root growth test in petridishes", "settings": "control = 100%", "procedure": "as §1, §2, §3, §4, §5"}, "Hordeum vulgare": {"test_system": "Hordeum vulgare", "test": "Seed germination and seedling shoot/root growth test in petridishes", "settings": "control = 100%", "procedure": "as §1, §2, §3, §4, §5"}, "Sesbania cannabina": {"test_system": "Sesbania cannabina", "test": "Seed germination and seedling growth, comparison with GA3 (Example 4)", "settings": "0.001 μM", "procedure": "as §3\nEffect of calliterpenone and its derivatives on seed germination and seedling growth in Hibiscus sabdariffa and Sesbania cannabina were measured in the similar way as these were measured in Example-1."}}, "data": [{"molecule": "CC1(C)C(=O)CC[C@@]2(C)[C@H]1CC[C@@]13C[C@H](CC[C@@H]12)[C@@](O)(CO)C3", "note": "[Calliterpenone, 16α, 17 dihydroxy phyllocladan-3 one]", "values": [{"measurement": "Percent (%) germination of seeds in relation to control on 9th day after sowing", "setting": "[1]; 0.001 μM", "result": 113, "unit": "%"}, {"measurement": "Percent (%) root growth of seedlings in relation to control on 9th day after sowing", "setting": "[1]; 0.001 μM", "result": 141, "unit": "%"}, {"measurement": "Percent (%) shoot growth of seedlings in relation to control on 9th day after sowing", "setting": "[1]; 0.001 μM", "result": 121, "unit": "%"}, {"measurement": "Percent (%) germination of seeds in relation to control on 9th day after sowing", "setting": "[1]; 0.01 μM", "result": 125, "unit": "%"}, {"measurement": "Percent (%) root growth of seedlings in relation to control on 9th day after sowing", "setting": "[1]; 0.01 μM", "result": 164, "unit": "%"}, {"measurement": "Percent (%) shoot growth of seedlings in relation to control on 9th day after sowing", "setting": "[1]; 0.01 μM", "result": 130, "unit": "%"}, {"measurement": "Percent (%) germination of seeds in relation to control on 9th day after sowing", "setting": "[1]; 0.1 μM", "result": 113, "unit": "%"}, {"measurement": "Percent (%) root growth of seedlings in relation to control on 9th day after sowing", "setting": "[1]; 0.1 μM", "result": 150, "unit": "%"}, {"measurement": "Percent (%) shoot growth of seedlings in relation to control on 9th day after sowing", "setting": "[1]; 0.1 μM", "result": 121, "unit": "%"}, {"measurement": "Seed germination as compared to 100% in control", "setting": "[1]; Trigonella foenum-graceum, concentration not specified", "result": 113, "unit": "%"}, {"measurement": "Percent (%) germination of seeds in relation to control on 9th day after sowing", "setting": "Vigna radiata; 0.001 μM", "result": 250, "unit": "%"}, {"measurement": "Percent (%) root growth of seedlings in relation to control on 9th day after sowing", "setting": "Vigna radiata; 0.001 μM", "result": 87, "unit": "%"}, {"measurement": "Percent (%) shoot growth of seedlings in relation to control on 9th day after sowing", "setting": "Vigna radiata; 0.001 μM", "result": 121, "unit": "%"}, {"measurement": "Percent (%) germination of seeds in relation to control on 9th day after sowing", "setting": "Vigna radiata; 0.01 μM", "result": 150, "unit": "%"}, {"measurement": "Percent (%) root growth of seedlings in relation to control on 9th day after sowing", "setting": "Vigna radiata; 0.01 μM", "result": 138, "unit": "%"}, {"measurement": "Percent (%) shoot growth of seedlings in relation to control on 9th day after sowing", "setting": "Vigna radiata; 0.01 μM", "result": 134, "unit": "%"}, {"measurement": "Percent (%) germination of seeds in relation to control on 9th day after sowing", "setting": "Vigna radiata; 0.1 μM", "result": 150, "unit": "%"}, {"measurement": "Percent (%) root growth of seedlings in relation to control on 9th day after sowing", "setting": "Vigna radiata; 0.1 μM", "result": 76, "unit": "%"}, {"measurement": "Percent (%) shoot growth of seedlings in relation to control on 9th day after sowing", "setting": "Vigna radiata; 0.1 μM", "result": 128, "unit": "%"}, {"measurement": "Percent (%) germination of seeds in relation to control on 9th day after sowing", "setting": "Triticum aestivum; 0.001 μM", "result": 100, "unit": "%"}, {"measurement": "Percent (%) root growth of seedlings in relation to control on 9th day after sowing", "setting": "Triticum aestivum; 0.001 μM", "result": 136, "unit": "%"}, {"measurement": "Percent (%) shoot growth of seedlings in relation to control on 9th day after sowing", "setting": "Triticum aestivum; 0.001 μM", "result": 105, "unit": "%"}, {"measurement": "Percent (%) germination of seeds in relation to control on 9th day after sowing", "setting": "Triticum aestivum; 0.01 μM", "result": 100, "unit": "%"}, {"measurement": "Percent (%) root growth of seedlings in relation to control on 9th day after sowing", "setting": "Triticum aestivum; 0.01 μM", "result": 80, "unit": "%"}, {"measurement": "Percent (%) shoot growth of seedlings in relation to control on 9th day after sowing", "setting": "Triticum aestivum; 0.01 μM", "result": 100, "unit": "%"}, {"measurement": "Percent (%) germination of seeds in relation to control on 9th day after sowing", "setting": "Triticum aestivum; 0.1 μM", "result": 100, "unit": "%"}, {"measurement": "Percent (%) root growth of seedlings in relation to control on 9th day after sowing", "setting": "Triticum aestivum; 0.1 μM", "result": 80, "unit": "%"}, {"measurement": "Percent (%) shoot growth of seedlings in relation to control on 9th day after sowing", "setting": "Triticum aestivum; 0.1 μM", "result": 95, "unit": "%"}, {"measurement": "Percent (%) germination of seeds in relation to control on 9th day after sowing", "setting": "Hordeum vulgare; 0.001 μM", "result": 100, "unit": "%"}, {"measurement": "Percent (%) root growth of seedlings in relation to control on 9th day after sowing", "setting": "Hordeum vulgare; 0.001 μM", "result": 116, "unit": "%"}, {"measurement": "Percent (%) shoot growth of seedlings in relation to control on 9th day after sowing", "setting": "Hordeum vulgare; 0.001 μM", "result": 118, "unit": "%"}, {"measurement": "Percent (%) germination of seeds in relation to control on 9th day after sowing", "setting": "Hordeum vulgare; 0.01 μM", "result": 100, "unit": "%"}, {"measurement": "Percent (%) root growth of seedlings in relation to control on 9th day after sowing", "setting": "Hordeum vulgare; 0.01 μM", "result": 116, "unit": "%"}, {"measurement": "Percent (%) shoot growth of seedlings in relation to control on 9th day after sowing", "setting": "Hordeum vulgare; 0.01 μM", "result": 103, "unit": "%"}, {"measurement": "Percent (%) germination of seeds in relation to control on 9th day after sowing", "setting": "Hordeum vulgare; 0.1 μM", "result": 100, "unit": "%"}, {"measurement": "Percent (%) root growth of seedlings in relation to control on 9th day after sowing", "setting": "Hordeum vulgare; 0.1 μM", "result": 82, "unit": "%"}, {"measurement": "Percent (%) shoot growth of seedlings in relation to control on 9th day after sowing", "setting": "Hordeum vulgare; 0.1 μM", "result": 102, "unit": "%"}, {"measurement": "Germination as compared to respective control", "setting": "Sesbania cannabina", "result": 150, "unit": "%"}, {"measurement": "Germination compared with GA3", "setting": "Sesbania cannabina", "result": 150, "unit": "%"}, {"measurement": "Root growth as compared to respective control", "setting": "Sesbania cannabina", "result": 119, "unit": "%"}, {"measurement": "Seed Ger.", "setting": "Sesbania cannabina", "result": 3}, {"measurement": "Shoot growth as compared to GA3 (100%)", "setting": "Sesbania cannabina", "result": 104, "unit": "%"}, {"measurement": "Shoot growth as compared to respective control", "setting": "Sesbania cannabina", "result": 120, "unit": "%"}, {"measurement": "Root Growth (mm) 3rd Day", "setting": "Sesbania cannabina; 3rd day", "result": 30.0, "unit": "mm"}, {"measurement": "Shoot growth 3rd Day", "setting": "Sesbania cannabina; 3rd day", "result": 17.0}, {"measurement": "Root Growth (mm) 6th Day", "setting": "Sesbania cannabina; 6th day", "result": 33.6, "unit": "mm"}, {"measurement": "Shoot growth 6th Day", "setting": "Sesbania cannabina; 6th day", "result": 86.2}, {"measurement": "Root Growth (mm) 9th Day", "setting": "Sesbania cannabina; 9th day", "result": 43.4, "unit": "mm"}]}]}
